Assays:
Dct/Trp2 promoter [1] = experiment: Transient CAT assay, Dct/Trp2 proximal promoter-CAT construct in WM 266-4; format: cell-based, human; details: CPP concentration 10 μM
Procedure: (§1) SOX10 and MITF interact with the proximal promoter of Dct/Trp2 gene and induces its activity (Ludwig A. et al., FEBS Lett. 556 (1-3):236-244 (2004)). Thus, a Dct/Trp2 proximal promoter reporter construct was used to analyze effect of mimicking peptides on promoter activity using transient CAT assay.
(§2) Methods. Human melanoma cell lines SK-MEL-28 and WM 266-4 were obtained from the American Tissue Culture Collection (ATCC) and were cultured according to recommendations of ATCC (DMEM, 10% FCS, penicillin+streptomycin). Dct/Trp2 proximal promoter-CAT construct (Ludwig et al., supra) was used in all experiments.
(§3) Cells were transfected by using FuGene reagent (Roche Molecular Biochemicals) according to manufacturer's instructions. Freeze-thaw lysates of cells collected 48 h after the transfection were assayed for CAT activity as described (Pothier, F. et al., DNA Cell Biol. 11(1):83-90 (1992)). At least two different DNA preparations were tested for each plasmid. To normalize the transfection efficiencies, cells were cotransfected with pON260 expressing β-galactosidase (Spaete, R. R. and Mocarski, E. S., J. Virol. 54(3):817-24 (1985); Spaete, R. R. and Mocarski, E. S., J. Virol. 56(1):13543 (1985)). All the CAT activities were normalized to total protein and β-galatosidase activity.
(§4) Following transfection, cells were grown in 6 well plates, each treatment in triplicates. Peptides were added to the media and media was changed every day during the 7 day experiment. CPP concentration was 10 μM.

B16 [2] = experiment: Cell counting after 7 day peptide treatment; format: cell-based, mouse; details: CPP mimicking peptides, conc 10 µM, start count 10
Procedure: The ability to block interaction of MITF, SOX10 and STAT3 with active transcriptional complex and inhibit proliferation and stimulate apoptosis of melanoma cells were tested on human melanoma cell lines SK-MEL-28 and WM 266-4, and mouse melanoma cell line B16. Methods. Human melanoma cell lines SK-MEL-28 and WM 2664 and mouse melanoma cell line B16 were obtained from the American Tissue Culture Collection (ATCC). Cells were cultured according to recommendations of ATCC (DMEM, 10% FCS, penicillin+streptomycin) and used in experiments after two passages in the laboratory. Cells were grown in 24 well plates, each treatment in triplicates. Cells were plated 16 hours prior treatments started. Peptides were added to the media, and media was changed every day during 7 day experiment. […] Cells were precipitated and resuspended in 100 μl of PBS, and 5 μl were removed for counting

Dct/Trp2 promoter [3] = experiment: Transient CAT assay, Dct/Trp2 proximal promoter-CAT construct in SK-MEL-28; format: cell-based, human; details: CPP concentration 10 μM
Procedure: as §1, §2, §3, §4

B16 [4] = experiment: Apoptosis, Annexin V-Cy3 Apoptosis Kit; format: cell-based, mouse; details: CPP mimicking peptides, conc 10 µM
Procedure: (§5) Methods. Human melanoma cell lines SK-MEL-28 and WM 2664 and mouse melanoma cell line B16 were obtained from the American Tissue Culture Collection (ATCC). Cells were cultured according to recommendations of ATCC (DMEM, 10% FCS, penicillin+streptomycin) and used in experiments after two passages in the laboratory. Cells were grown in 24 well plates, each treatment in triplicates. Cells were plated 16 hours prior treatments started. Peptides were added to the media, and media was changed every day during 7 day experiment. CPP concentration was 10 μM Apoptosis was analyzed using Biovision Annexin V-Cy3 Apoptosis Kit according to manufacturers protocols.

B16 [5] = experiment: WST-1 test (mitochondrial activity); format: cell-based, mouse; details: CPP mimicking peptides, conc 10 µM, untreated = 1
Procedure: as §5, with “CPP concentration was 10 μM Apoptosis was analyzed using Biovision Annexin V-Cy3 Apoptosis Kit according to manufacturers protocols.” left out

B16 melanoma = experiment: Mouse tumor xenograft model, peptide membrane patch on skin melanoma; format: in vivo; details: patch immersed in 100 μM peptide solution, start = 100
Procedure: The effect of modified mimicking peptides was analyzed by inducing melanomas in mouse skin by grafting suspension of melanoma cells. […] Tumor diameter was measured 1, 2, 3, 5, 7 days after treatmet started.
Methods. Mouse melanoma cell line B16 was cultured as described above, and approximately 5×10^6 cells were injected subcutaneously into the left and right limbs of three C57BL/6JOIaHsd mice.
Administration. Cellulose membrane was immersed in a solution of peptides (100 μM). Size of tumor was measured 1, 2, 3, 5 and 7 days following patch treatment. At the same time new patch was applied. All experiments were done in triplicates (3 animals per group).

Human keratinocytes [6] = experiment: Apoptosis, Annexin V-Cy3 Apoptosis Kit; format: cell-based; details: keratinocyte, modified peptides, conc 10 µM
Human keratinocytes [7] = experiment: WST-1 test (mitochondrial activity); format: cell-based; details: keratinocyte; modified peptides; conc 10 µM; untreated = 1
Procedure: Methods. Human melanoma cell lines SK-MEL-28 and WM 266-4 were obtained from the American Tissue Culture Collection (ATCC) and were cultured according to recommendations of ATCC (DMEM, 10% FCS, penicillin+streptomycin). Human keratinocytes were obtained from Clonetics and cultured according to manufacturers protocol. Cells were used in experiments after two passages in the laboratory. Cells were grown in 24 well plates, each treatment in triplicates. Cells were plated 16 hours prior treatments started. Peptides were added to the media, and media was changed every day during 7 day experiment. […] WST-1 test was performed to measure mitochondrial activity, which can also be used as a measure of cell number.

Human keratinocytes [8] = experiment: Cell counting after 7 day peptide treatment; format: cell-based; details: keratinocyte, modified peptides, conc 10 µM, start count 10
Procedure: Methods. Human melanoma cell lines SK-MEL-28 and WM 266-4 were obtained from the American Tissue Culture Collection (ATCC) and were cultured according to recommendations of ATCC (DMEM, 10% FCS, penicillin+streptomycin). Human keratinocytes were obtained from Clonetics and cultured according to manufacturers protocol. Cells were used in experiments after two passages in the laboratory. Cells were grown in 24 well plates, each treatment in triplicates. Cells were plated 16 hours prior treatments started. Peptides were added to the media, and media was changed every day during 7 day experiment. CPP concentration was 10 μM. For cell counting, cells were trypsinized (0.25% Trypsin, 2 mM EDTA) in Ca, Mg free PBS. Cells were precipitated and resuspended in 100 μl of PBS, and 5 μl were removed for counting.

Sequence | Dct/Trp2 promoter activity (CAT assay) (Dct/Trp2 promoter [1]) | Cell Count 7 d (B16 [2]) | Dct/Trp2 promoter activity (CAT assay) (Dct/Trp2 promoter [3]) | Apoptosis 7 d/% (B16 [4]) | WST-1 7 d (B16 [5]) | tumor size change (%) 1 d (B16 melanoma; 1 d, B16 s.c. in C57BL/6 mice) | tumor size change (%) 2 d (B16 melanoma; 2 d) | tumor size change (%) 3 d (B16 melanoma; 3 d) | tumor size change (%) 5 d (B16 melanoma; 5 d) | tumor size change (%) 7 d (B16 melanoma; 7 d) | Apoptosis 7 d/% (Human keratinocytes [6]) | WST-1 7 d (Human keratinocytes [7]) | Cell Count 7 d (Human keratinocytes [8])
RPKKRKVRRRFNINDRIKELGTLIPKSNDPDMRWN [MITF-int1] | suppress Dct/Trp2 promoter activity significantly | 63 | suppress Dct/Trp2 promoter activity significantly | 16% |  |  |  |  |  |  |  |  | 
RPKKRKVRRRVKRPMNAFMVWAQAARRKLADQY [SOX10-int1] | suppress Dct/Trp2 promoter activity significantly | 72 | suppress Dct/Trp2 promoter activity significantly | 12% | 0.88 |  |  |  |  |  |  |  | 
TTGGSSPQGLEAKRPKKRKVRRRFNINDRIKELGTLIPKSNDPDMRWN [MITF-int1M] |  |  |  |  |  | 112% | 135% | 150% | 170% | 210% | 5% | 0.93 | 38

From US20060014712A1, “Controlled delivery of therapeutic compounds” (CeMines, Inc., priority 2004, published 2006)
